Test results published in patent US11180483B2, “Substituted reverse pyrimidine Bmi-1 inhibitors” (PTC Therapeutics, Inc., priority 2012, dated 2021).

Test system: Bmi-1
Assay: Sandwich ELISA Assay (Bmi-1 ELISA) in HT-1080 cells
Assay type: cell-based
In short: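 Bmi-1 in lysates was measured by a three-antibody ELISA with TMB, OD450 minus OD570 reference, interpolated on a GST-tagged recombinant Bmi-1 standard curve, 0-8000 pg/mL. Lysates came from HT-1080 cells treated 40-48 h with compound, final DMSO 0.5%.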

| Compound | EC50 [nM] |
| --- | --- |
| Cc1nc2cc(Cl)ccc2n1-c1nc(N)cc(Nc2ccc(OC(F)F)cc2)n1 [Cpd 99, 2-(5-chloro-2-methyl-1H-benzimidazol-1-yl)-N-[4-(difluoromethoxy)phenyl]pyrimidine-4,6-diamine] | 100 to 3000 |
| Cc1nc2cc(F)c(F)cc2n1-c1nc(N)cc(Nc2ccc(OC(F)F)c(F)c2)n1 [Cpd 101, N-[4-(difluoromethoxy)-3-fluorophenyl]-2-(5,6-difluoro-2-methyl-1H-benzimidazol-1-yl)pyrimidine-4,6-diamine] | 10 to 100 |
| Cc1nc2cc(F)c(F)cc2n1-c1nc(N)cc(Nc2ccc(OC(F)F)cc2)n1 [Cpd 102, N-[4-(difluoromethoxy)phenyl]-2-(5,6-difluoro-2-methyl-1H-benzimidazol-1-yl)pyrimidine-4,6-diamine] | 10 to 100 |
| Nc1cc(Nc2ccc(OC(F)F)cc2)nc(-n2c(C3CC3)nc3ncc(F)cc32)n1 [Cpd 103, 2-(2-cyclopropyl-6-fluoro-1H-imidazo[4,5-b]pyridin-1-yl)-N-[4-(difluoromethoxy)phenyl]pyrimidine-4,6-diamine] | 10 to 100 |
| Cc1nc2ncc(Cl)cc2n1-c1nc(N)cc(Nc2ccc(C(F)(F)F)cc2)n1 [Cpd 104, 2-(6-chloro-2-methyl-1H-imidazo[4,5-b]pyridin-1-yl)-N-[4-(trifluoromethyl)phenyl]pyrimidine-4,6-diamine] | 10 to 100 |
| CCc1nc2ncc(Cl)cc2n1-c1nc(N)cc(Nc2ccc(C(F)(F)F)cc2)n1 [Cpd 105, 2-(6-chloro-2-ethyl-1H-imidazo[4,5-b]pyridin-1-yl)-N-[4-(trifluoromethyl)phenyl]pyrimidine-4,6-diamine] | 10 to 100 |
| Cc1nc2ccccc2n1-c1nc(N)c(F)c(Nc2ccc(OC(F)F)cc2)n1 [Cpd 106, N-[4-(difluoromethoxy)phenyl]-5-fluoro-2-(2-methyl-1H-benzimidazol-1-yl)pyrimidine-4,6-diamine] | 10 to 100 |
| CCc1nc2ccccc2n1-c1nc(N)c(F)c(Nc2ccc(C(F)(F)F)cc2)n1 [Cpd 107, 2-(2-ethyl-1H-benzimidazol-1-yl)-5-fluoro-N-[4-(trifluoromethyl)phenyl]pyrimidine-4,6-diamine] | 10 to 100 |
| Cc1nc2cc(F)ccc2n1-c1nc(N)c(F)c(Nc2ccc(C(F)(F)F)cc2)n1 [Cpd 108, 5-fluoro-2-(5-fluoro-2-methyl-1H-benzimidazol-1-yl)-N-[4-(trifluoromethyl)phenyl]pyrimidine-4,6-diamine] | 100 to 3000 |
| Cc1nc2ccc(F)cc2n1-c1nc(N)c(F)c(Nc2ccc(OC(F)F)cc2)n1 [Cpd 110, N-[4-(difluoromethoxy)phenyl]-5-fluoro-2-(6-fluoro-2-methyl-1H-benzimidazol-1-yl)pyrimidine-4,6-diamine] | 10 to 100 |
| Cc1nc2ccc(F)cc2n1-c1nc(N)c(F)c(Nc2ccc(OC(F)F)c(F)c2)n1 [Cpd 111, N-[4-(difluoromethoxy)-3-fluorophenyl]-5-fluoro-2-(6-fluoro-2-methyl-1H-benzimidazol-1-yl)pyrimidine-4,6-diamine] | 10 to 100 |
| Cc1nc2cc(F)ccc2n1-c1nc(N)c(F)c(Nc2ccc(OC(F)F)c(F)c2)n1 [Cpd 112, N-[4-(difluoromethoxy)-3-fluorophenyl]-5-fluoro-2-(5-fluoro-2-methyl-1H-benzimidazol-1-yl)pyrimidine-4,6-diamine] | 10 to 100 |
| Cc1nc2cc(F)ccc2n1-c1nc(N)c(F)c(Nc2ccc(OC(F)F)cc2)n1 [Cpd 113, N-[4-(difluoromethoxy)phenyl]-5-fluoro-2-(5-fluoro-2-methyl-1H-benzimidazol-1-yl)pyrimidine-4,6-diamine] | 10 to 100 |
| Cc1nc2ncc(Cl)cc2n1-c1nc(N)c(F)c(Nc2ccc(C(F)(F)F)cc2)n1 [Cpd 114, 2-(6-chloro-2-methyl-1H-imidazo[4,5-b]pyridin-1-yl)-5-fluoro-N-[4-(trifluoromethyl)phenyl]pyrimidine-4,6-diamine] | 10 to 100 |
| Cc1nc2ncc(Cl)cc2n1-c1nc(N)c(F)c(Nc2ccc(OC(F)F)cc2)n1 [Cpd 115, 2-(6-chloro-2-methyl-1H-imidazo[4,5-b]pyridin-1-yl)-N-[4-(difluoromethoxy)phenyl]-5-fluoropyrimidine-4,6-diamine] | 10 to 100 |
| Cc1nc2ncc(Cl)cc2n1-c1nc(N)c(F)c(Nc2ccc(OC(F)F)c(F)c2)n1 [Cpd 116, 2-(6-chloro-2-methyl-1H-imidazo[4,5-b]pyridin-1-yl)-N-[4-(difluoromethoxy)-3-fluorophenyl]-5-fluoropyrimidine-4,6-diamine] | 10 to 100 |
| Nc1nc(-n2c(C3CC3)nc3ncc(F)cc32)nc(Nc2ccc(C(F)(F)F)cc2)c1F [Cpd 117, 2-(2-cyclopropyl-6-fluoro-1H-imidazo[4,5-b]pyridin-1-yl)-5-fluoro-N-[4-(trifluoromethyl)phenyl]pyrimidine-4,6-diamine] | 10 to 100 |
| FC(F)(F)c1ccc(Nc2ccnc(-c3cnc4ccccn34)n2)cc1 [Cpd 118, 2-(imidazo[1,2-a]pyridin-3-yl)-N-[4-(trifluoromethyl)phenyl]pyrimidin-4-amine] | 100 to 3000 |

| Compound | EC50 [nM] |
| --- | --- |
| Cc1nc2ccccc2n1-c1nc(N)c(F)c(Nc2ccc(OC(F)F)c(F)c2)n1 [Cpd 119, N-[4-(difluoromethoxy)-3-fluorophenyl]-5-fluoro-2-(2-methyl-1H-benzimidazol-1-yl)pyrimidine-4,6-diamine] | 10 to 100 |
| Nc1nc(-n2c(C3CC3)nc3ccccc32)nc(Nc2ccc(C(F)(F)F)cc2)c1F [Cpd 120, 2-(2-cyclopropyl-1H-benzimidazol-1-yl)-5-fluoro-N-[4-(trifluoromethyl)phenyl]pyrimidine-4,6-diamine] | 10 to 100 |
| Nc1nc(-n2c(C3CC3)nc3ccccc32)nc(Nc2ccc(OC(F)F)cc2)c1F [Cpd 121, 2-(2-cyclopropyl-1H-benzimidazol-1-yl)-N-[4-(difluoromethoxy)phenyl]-5-fluoropyrimidine-4,6-diamine] | 1 to 10 |
| Nc1nc(-n2c(C3CC3)nc3ccccc32)nc(Nc2ccc(OC(F)F)c(F)c2)c1F [Cpd 122, 2-(2-cyclopropyl-1H-benzimidazol-1-yl)-N-[4-(difluoromethoxy)-3-fluorophenyl]-5-fluoropyrimidine-4,6-diamine] | 10 to 100 |
| CCc1nc2ccccc2n1-c1nc(N)c(F)c(Nc2ccc(OC(F)F)cc2)n1 [Cpd 123, N-[4-(difluoromethoxy)phenyl]-2-(2-ethyl-1H-benzimidazol-1-yl)-5-fluoropyrimidine-4,6-diamine] | 1 to 10 |
| CCc1nc2ccccc2n1-c1nc(N)c(F)c(Nc2ccc(OC(F)F)c(F)c2)n1 [Cpd 124, N-[4-(difluoromethoxy)-3-fluorophenyl]-2-(2-ethyl-1H-benzimidazol-1-yl)-5-fluoropyrimidine-4,6-diamine] | 10 to 100 |
| Cc1nc2cc(F)c(F)cc2n1-c1nc(N)c(F)c(Nc2ccc(C(F)(F)F)cc2)n1 [Cpd 125, 2-(5,6-difluoro-2-methyl-1H-benzimidazol-1-yl)-5-fluoro-N-[4-(trifluoromethyl)phenyl]pyrimidine-4,6-diamine] | 100 to 3000 |
| Cc1nc2cc(F)c(F)cc2n1-c1nc(N)c(F)c(Nc2ccc(OC(F)F)c(F)c2)n1 [Cpd 126, N-[4-(difluoromethoxy)-3-fluorophenyl]-2-(5,6-difluoro-2-methyl-1H-benzimidazol-1-yl)-5-fluoropyrimidine-4,6-diamine] | 10 to 100 |
| Cc1nc2c(F)cc(F)cc2n1-c1nc(N)c(F)c(Nc2ccc(C(F)(F)F)cc2)n1 [Cpd 127, 2-(4,6-difluoro-2-methyl-1H-benzimidazol-1-yl)-5-fluoro-N-[4-(trifluoromethyl)phenyl]pyrimidine-4,6-diamine] | 10 to 100 |
| Cc1nc2c(F)cc(F)cc2n1-c1nc(N)c(F)c(Nc2ccc(OC(F)F)c(F)c2)n1 [Cpd 128, N-[4-(difluoromethoxy)-3-fluorophenyl]-2-(4,6-difluoro-2-methyl-1H-benzimidazol-1-yl)-5-fluoropyrimidine-4,6-diamine] | 10 to 100 |
| CCc1nc2c(F)cc(F)cc2n1-c1nc(N)c(F)c(Nc2ccc(C(F)(F)F)cc2)n1 [Cpd 129, 2-(2-ethyl-4,6-difluoro-1H-benzimidazol-1-yl)-5-fluoro-N-[4-(trifluoromethyl)phenyl]pyrimidine-4,6-diamine] | 10 to 100 |
| CCc1nc2c(F)cc(F)cc2n1-c1nc(N)c(F)c(Nc2ccc(OC(F)F)c(F)c2)n1 [Cpd 130, N-[4-(difluoromethoxy)-3-fluorophenyl]-2-(2-ethyl-4,6-difluoro-1H-benzimidazol-1-yl)-5-fluoropyrimidine-4,6-diamine] | 10 to 100 |
| Cc1nc2c(F)cc(F)cc2n1-c1nc(N)c(F)c(Nc2ccc(OC(F)F)cc2)n1 [Cpd 131, N-[4-(difluoromethoxy)phenyl]-2-(4,6-difluoro-2-methyl-1H-benzimidazol-1-yl)-5-fluoropyrimidine-4,6-diamine] | 10 to 100 |
| CCc1nc2c(F)cc(F)cc2n1-c1nc(N)c(F)c(Nc2ccc(OC(F)F)cc2)n1 [Cpd 132, N-[4-(difluoromethoxy)phenyl]-2-(2-ethyl-4,6-difluoro-1H-benzimidazol-1-yl)-5-fluoropyrimidine-4,6-diamine] | 10 to 100 |
| Cc1nc2cc(F)c(F)cc2n1-c1nc(N)c(F)c(Nc2ccc(OC(F)F)cc2)n1 [Cpd 133, N-[4-(difluoromethoxy)phenyl]-2-(5,6-difluoro-2-methyl-1H-benzimidazol-1-yl)-5-fluoropyrimidine-4,6-diamine] | 10 to 100 |
| Cc1nc2c(F)cccc2n1-c1nc(N)c(F)c(Nc2ccc(C(F)(F)F)cc2)n1 [Cpd 134, 5-fluoro-2-(4-fluoro-2-methyl-1H-benzimidazol-1-yl)-N-[4-(trifluoromethyl)phenyl]pyrimidine-4,6-diamine] | 10 to 100 |
| Cc1nc2c(F)cccc2n1-c1nc(N)c(F)c(Nc2ccc(OC(F)F)cc2)n1 [Cpd 135, N-[4-(difluoromethoxy)phenyl]-5-fluoro-2-(4-fluoro-2-methyl-1H-benzimidazol-1-yl)pyrimidine-4,6-diamine] | 10 to 100 |
| Cc1nc2c(F)cccc2n1-c1nc(N)c(F)c(Nc2ccc(OC(F)F)c(F)c2)n1 [Cpd 136, N-[4-(difluoromethoxy)-3-fluorophenyl]-5-fluoro-2-(4-fluoro-2-methyl-1H-benzimidazol-1-yl)pyrimidine-4,6-diamine] | 10 to 100 |
